Experimental data from patent US7208505B2, “β3 adrenergic agonists” (Eli Lilly and Company, priority 2001, dated 2007).

target: T1, human β3 adrenergic receptor (Homo sapiens, UniProt P13945); assay: whole cell receptor coupled c-AMP assay (Emax relative to isoproterenol); type: cell-based; conditions: % intrinsic activity relative to isoproterenol; transfected CHO cells
T1 construct: expressed in transfected cells
From the text: The genes encoding the human β1-adrenergic receptor (Frielle et al., Proc. Natl. Acad. Sci., 84:7920–7924, 1987), the human β2-adrenergic receptor (Kobika et al., Proc. Natl. Acad. Sci., 84:46–50, 1987, Emorine et al., Proc. Natl. Acad. Sci., 84:6995–6999, 1987) and the human β3 adrenergic receptor (Granneman et al., Molecular Pharmacology, 44(2):264–70, 1993) are individually subcloned into a phd expression vector (Grinnell et al., Bio/Technology, 5:1189–1192, 1987) and transfected into the DXB-11 Chinese hamster ovary (CHO) cell line by calcium phosphate precipitation methodology. The stably transfected cells are grown to 95% confluency in 95% Dulbecco's modified Eagles Medium (DMEM), 5% fetal bovine serum and 0.01% proline. Media is removed and the cells are washed with phosphate buffered (pH 7.4) saline (without magnesium and calcium). Cells are then lifted using an enzyme free cell dissociation solution (Specialty Media, Lavallette, N.J.) and pelleted by centrifugation.
Cells from each of the above cell lines are resuspended and added (20,000/well) to a 96-well plate. Cells are incubated at 37° C. with representative compounds of the invention for 20 minutes in buffer (Hank's balanced salt solution, 10 mM HEPES, 0.1% BSA, 1 mM L-ascorbic acid, 0.2% dimethyl sulfoxide, 1 mM 3-isobutyl-1-methylxanthine, pH 7.4). After halting the incubation with quench buffer (50 mM Na Acetate, 0.25% Triton X-100, pH 5.8), the c-AMP level is quantified by scintillation proximity assay (SPA) using a modification of the commercially available c-AMP kit (Amersham, Arlington Heights, Ill.) with rabbit anti-cAMP antibody (ICN Biomedicals, Aurora, Ohio) for the kit.
Sigmoidal dose response curves, from the whole cell receptor coupled c-AMP assay are fit to a four parameter logistic equation using non linear regression: y=(a−d)/(1+(Dose/c)^b)+d where a and d are responses at zero and maximal dose, b is the slope factor and c is the EC50 as previously described (DeLean et al., Am. J. Physiol., 235, E97-E102, 1978). EC50 is assessed as the concentration producing 50% of the maximum response to each agonist.
Isoproterenol is accepted in the art as a non-selective β3 agonist and is widely used as a comparator in evaluating the activity of compounds. See Trends in Pharm. Sci., 15:3, 1994. The % intrinsic activity (Emax) of representative compounds of the invention is assessed relative to isoproterenol by the compound's maximal response divided by the isoproterenol maximal response times 100.

T1 sequence (P13945 whole entry): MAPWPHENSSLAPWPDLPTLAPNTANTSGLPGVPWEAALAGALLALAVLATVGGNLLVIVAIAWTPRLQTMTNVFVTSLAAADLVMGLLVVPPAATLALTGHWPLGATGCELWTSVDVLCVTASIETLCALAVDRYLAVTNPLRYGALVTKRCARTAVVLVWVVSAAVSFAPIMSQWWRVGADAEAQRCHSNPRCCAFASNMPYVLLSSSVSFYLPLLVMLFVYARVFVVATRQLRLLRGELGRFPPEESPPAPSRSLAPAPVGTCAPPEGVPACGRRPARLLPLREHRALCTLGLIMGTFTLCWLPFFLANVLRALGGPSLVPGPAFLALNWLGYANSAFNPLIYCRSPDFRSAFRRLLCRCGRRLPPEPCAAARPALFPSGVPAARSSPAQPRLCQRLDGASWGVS

Structure (SMILES) | Emax
CC(Cc1c[nH]c2c(OCC#N)cccc12)NC[C@H](O)COc1ccccc1-c1ccno1 (stereo partly shown) [Example 199] | 22.8%

same assay, conditions: % intrinsic activity: maximal response divided by isoproterenol maximal response times 100; transfected CHO cells; average of at least 3 runs

Emax (%) ± SEM | Structure (SMILES)
90.4 ± 3.8% | CC(C)(Cc1c[nH]c2c(C(=O)O)cccc12)NC[C@H](O)COc1ccccc1-c1ccc(C#N)s1 [Example 90]
41.1 ± 3.5% | CC(C)(Cc1c[nH]c2c(C(N)=O)cccc12)NC[C@H](O)COc1ccccc1-c1ccon1 [Example 175]
41.9 ± 9.3% | Cc1cc2c(OCC#N)cccc2n1C[C@@H](C)NC[C@H](O)COc1ccccc1-c1cccs1 [Example 156]
58.5 ± 0.5% | CC(C)(Cc1c[nH]c2c(NS(C)(=O)=O)cccc12)NC[C@H](O)COc1ccccc1-c1ccon1 [Example 28]
60.6 ± 2.4% | CC(C)(Cc1c[nH]c2c(OCC#N)cccc12)NC[C@H](O)COc1ccccc1-c1ccon1 [Example 133]
77.9 ± 0.7% | CC(C)(Cc1c[nH]c2c(CCc3ccc(C#N)cc3)cccc12)NC[C@H](O)COc1ccccc1-c1cccs1 [Example 187]
62.4 ± 2.1% | CC(C)(Cc1c[nH]c2ccccc12)NC[C@H](O)COc1ccccc1-c1cocn1 [Example 31]
50.3 ± 2.2% | CC(C)(Cc1c[nH]c2ccccc12)NC[C@H](O)COc1ccccc1-n1ccc(C#N)c1 [Example 35]
83.5 ± 2.7% | CC(C)(Cc1c[nH]c2c(CCC(N)=O)cccc12)NC[C@H](O)COc1ccccc1-c1cccs1 [Example 140]
37.1 ± 4.0% | C[C@H](Cn1ccc2ccccc21)NC[C@H](O)COc1ccccc1-c1ccon1 [Example 165]
66.5 ± 0.4% | CC(C)(Cc1c[nH]c2c(C=Cn3ccnc3)cccc12)NC[C@H](O)COc1ccccc1-c1cccs1 [Example 186]
82.0 ± 4.3% | CC(C)(Cc1c[nH]c2c(-c3cccc(C(F)(F)F)c3)cccc12)NC[C@H](O)COc1ccccc1-c1cccs1 [Example 37]
58.3 ± 1.3% | CC(C)(Cc1c[nH]c2ccccc12)NC[C@H](O)COc1ccccc1-c1ccsc1.Cl [Example 51]
36.3 ± 1.8% | C[C@H](NC[C@H](O)COc1ccccc1-c1cccs1)C(=O)N1CCc2ccccc21 [Example 130]
73.3 ± 5.9% | CC(C)(Cc1c[nH]c2c(CCC#N)cccc12)NC[C@H](O)COc1ccccc1-c1cccs1 [Example 144]
73.3 ± 4.6% | CCOC(=O)c1cccc(-c2cccc3c(CC(C)(C)NC[C@H](O)COc4ccccc4-c4cccs4)c[nH]c23)c1 [Example 40]
78.1 ± 4.6% | CC(C)(Cc1c[nH]c2c(OCC(=O)[O-])cccc12)NC[C@H](O)COc1ccccc1-c1cccs1.[Na+] [Example 225]
57.1 ± 2.4% | CC(C)(Cc1c[nH]c2c(-c3ccc(C(N)=O)cc3)cccc12)NC[C@H](O)COc1ccccc1-c1ccon1 [Example 103]
86.5 ± 5.5% | CC(C)(Cc1c[nH]c2c(C=CC(N)=O)cccc12)NCC(O)COc1ccccc1-c1cccs1 (stereo not shown) [Example 139]

Emax (%) ± SEM | Structure (SMILES)
58.2 ± 2.3% | CC(C)(Cc1c[nH]c2ccccc12)NC[C@H](O)COc1ccccc1-c1cscn1 [Example 79]
73.1 ± 1.0% | CCOC(=O)c1cccc(-c2cccc3c(CC(C)(C)NC[C@H](O)COc4ccccc4-c4ccon4)c[nH]c23)c1 [Example 41]
59.2 ± 2.2% | CC(C)(Cc1c[nH]c2ccccc12)NC[C@H](O)COc1cccnc1-c1cccs1 [Example 125]
43.4 ± 2.0% | CC(C)(Cc1c[nH]c2ccccc12)NC[C@H](O)COc1ccc(F)cc1-c1ccon1 [Example 80]
82.1 ± 1.4% | CC(C)(Cc1c[nH]c2c(CCS(C)(=O)=O)cccc12)NC[C@H](O)COc1ccccc1-c1cccs1 [Example 142]
51.9 ± 3.4% | CC(C)(Cc1c[nH]c2ccc(OCC#N)cc12)NC[C@H](O)COc1ccccc1-c1cccs1 [Example 169]
44.2 ± 1.2% | CC(=O)c1ccc(-c2cccc3c(CC(C)(C)NC[C@H](O)COc4ccccc4-c4ccon4)c[nH]c23)cc1 [Example 49]
66.6 ± 3.1% | COC(=O)c1ccc(-c2cccc3c(CC(C)(C)NC[C@H](O)COc4ccccc4-c4cccs4)c[nH]c23)cc1 [Example 43]
62.1 ± 3.3% | CC(C)(Cc1c[nH]c2cc(OCC#N)ccc12)NC[C@H](O)COc1ccccc1-c1cccs1 [Example 168]
68.9 ± 2.6% | CC(C)(Cc1c[nH]c2c(OCC(N)=O)cccc12)NC[C@H](O)COc1ccccc1-n1cccc1 [Example 3]
73.9 ± 1.3% | CC(C)(Cc1c[nH]c2cc(C#N)ccc12)NC[C@H](O)COc1ccccc1-c1cccs1 [Example 77]
46.5 ± 3.0% | C[C@H](CN1CCc2ccccc21)NC[C@H](O)COc1ccccc1-c1cccs1 [Example 128]
85.6 ± 7.8% | CC(C)(Cc1c[nH]c2ccccc12)NC[C@H](O)COc1ccccc1-c1ccc(S(N)(=O)=O)s1 [Example 191]
50.2 ± 1.5% | CC(C)(Cc1c[nH]c2c(F)cccc12)NC[C@H](O)COc1ccccc1-c1ccon1 [Example 173]
64.2 ± 7.6% | CC(C)(Cc1c[nH]c2cccc(F)c12)NC[C@H](O)COc1ccccc1-c1cccs1 [Example 162]
65.0 ± 2.0% | CC(C)(Cc1c[nH]c2c(C=CS(C)(=O)=O)cccc12)NCC(O)COc1ccccc1-c1cccs1 (stereo not shown) [Example 141]
22.2 ± 4.5% | O[C@@H](CNCCn1ccc2ccccc21)COc1ccccc1-c1cccs1 [Example 64]
64.5 ± 1.7% | CC(C)(Cc1c[nH]c2c(C=Cc3ccc(S(N)(=O)=O)cc3)cccc12)NC[C@H](O)COc1ccccc1-c1cccs1 [Example 189]
57.1 ± 5.8% | CC(C)(Cc1c[nH]c2ccc(F)cc12)NC[C@H](O)COc1ccccc1-c1cccs1 [Example 163]

Structure (SMILES) | Emax (%) ± SEM
Cc1ccc(-c2ccccc2OC[C@@H](O)CNC(C)(C)Cc2c[nH]c3c(OCC#N)cccc23)s1.O=C(O)C(F)(F)F [Example 14] | 75.2 ± 3.0%
CC(C)(Cc1c[nH]c2c(OCC#N)cccc12)NC[C@H](O)COc1ccccc1-c1ccc(C#N)s1.O=C(O)C(F)(F)F [Example 12] | 77.7 ± 4.6%
CC(C)(Cc1c[nH]c2c(OCC#N)cccc12)NC[C@H](O)COc1ccccc1-n1cccc1 [Example 1] | 64.1 ± 4.5%
CC(C)(Cc1c[nH]c2c(OCC#N)cccc12)NC[C@H](O)COc1ccccc1-c1cnco1.O=C(O)C(F)(F)F [Example 7] | 58.4 ± 1.7%

same assay, conditions: CHO, % intrinsic activity relative to isoproterenol; transfected CHO cells

Emax | Structure (SMILES)
67% | CC(C)(Cc1c[nH]c2cc(C(=O)O)ccc12)NC[C@H](O)COc1ccccc1-c1nccs1 [Example 204]

same assay, conditions: CHO, % intrinsic activity: maximal response divided by isoproterenol maximal response times 100; transfected CHO cells; average of at least 3 runs

Emax | Structure (SMILES)
81.2 ± 0.9% | CC(C)(Cc1c[nH]c2c(CCn3cncn3)cccc12)NC[C@H](O)COc1ccccc1-c1cccs1 [Example 222]
73.9 ± 2.9% | CC(C)(Cc1c[nH]c2ccc(OCC(=O)O)cc12)NC[C@H](O)COc1ccccc1-c1cccs1 [Example 237]
80.9 ± 4.9% | CC(C)(Cc1c[nH]c2c(CCc3ccc(S(N)(=O)=O)cc3)cccc12)NC[C@H](O)COc1ccccc1-c1cccs1 [Example 254]
< 10% | CC(C)(Cc1c[nH]c2cccc(C(=O)O)c12)NC[C@H](O)COc1ccccc1-c1cccs1 [Example 238]
87.5 ± 7.5% | CC(C)(Cc1c[nH]c2c(/C=C/C(=O)O)cccc12)NC[C@H](O)COc1ccccc1-c1cccs1 [Example 227]
92.5 ± 5.1% | CC(C)(Cc1c[nH]c2c(-c3ccc(C(=O)O)s3)cccc12)NC[C@H](O)COc1ccccc1-c1cccs1 [Example 250]
74.6 ± 3.6% | CC(C)(Cc1c[nH]c2ccccc12)NC[C@H](O)COc1ccccc1-c1ccc(C(=O)O)s1 [Example 221]
81.6 ± 4% | CC(C)(Cc1c[nH]c2c(CCc3cnccn3)cccc12)NC[C@H](O)COc1ccccc1-c1cccs1 [Example 253]
81.2 ± 0.6% | CC(C)(Cc1c[nH]c2c(CCc3ccc(C(N)=O)cc3)cccc12)NC[C@H](O)COc1ccccc1-c1cccs1 [Example 220]
79.5 ± 1.7% | CC(C)(Cc1c[nH]c2c(CCc3nnn[nH]3)cccc12)NC[C@H](O)COc1ccccc1-c1cccs1 [Example 232]
52.4 ± 6% | CC(C)(Cc1c[nH]c2c(OCC(=O)O)cccc12)NC[C@H](O)COc1ccccc1-c1ccno1 [Example 233]
